Test results published in article PMC4758254 (Nature plants, 2015).

What was measured:
[1] = target: T1, AtINT2 (Arabidopsis thaliana, UniProt Q9C757); test: inhibition of arsenic uptake into yeast cells, ICP-MS; format: cell-based; settings: 250 μM As(III), 0-8 μg/mL myo-inositol, 24 h, 30 °C; substrate competition
T1 sequence (Q9C757 1-580): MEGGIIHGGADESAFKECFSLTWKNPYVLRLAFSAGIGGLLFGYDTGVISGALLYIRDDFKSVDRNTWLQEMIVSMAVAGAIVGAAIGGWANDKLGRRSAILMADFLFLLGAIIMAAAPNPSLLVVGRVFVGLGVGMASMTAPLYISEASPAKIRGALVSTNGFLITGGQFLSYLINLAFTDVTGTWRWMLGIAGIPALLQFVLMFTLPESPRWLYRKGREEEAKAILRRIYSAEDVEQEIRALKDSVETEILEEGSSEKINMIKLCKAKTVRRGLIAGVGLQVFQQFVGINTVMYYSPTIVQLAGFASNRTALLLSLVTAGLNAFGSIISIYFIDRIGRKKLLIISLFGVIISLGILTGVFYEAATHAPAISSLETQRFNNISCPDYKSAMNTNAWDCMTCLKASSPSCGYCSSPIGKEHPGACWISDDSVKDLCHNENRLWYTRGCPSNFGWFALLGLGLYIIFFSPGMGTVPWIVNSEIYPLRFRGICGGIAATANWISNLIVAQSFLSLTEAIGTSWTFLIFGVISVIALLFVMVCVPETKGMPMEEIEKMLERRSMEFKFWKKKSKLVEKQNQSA

[2] = target: T2, AtINT4 (Arabidopsis thaliana, UniProt O23492); test: as above; format: cell-based; settings: 250 μM As(III), 0-8 μg/mL myo-inositol, 24 h, 30 °C; substrate competition
T2 sequence (O23492 1-582): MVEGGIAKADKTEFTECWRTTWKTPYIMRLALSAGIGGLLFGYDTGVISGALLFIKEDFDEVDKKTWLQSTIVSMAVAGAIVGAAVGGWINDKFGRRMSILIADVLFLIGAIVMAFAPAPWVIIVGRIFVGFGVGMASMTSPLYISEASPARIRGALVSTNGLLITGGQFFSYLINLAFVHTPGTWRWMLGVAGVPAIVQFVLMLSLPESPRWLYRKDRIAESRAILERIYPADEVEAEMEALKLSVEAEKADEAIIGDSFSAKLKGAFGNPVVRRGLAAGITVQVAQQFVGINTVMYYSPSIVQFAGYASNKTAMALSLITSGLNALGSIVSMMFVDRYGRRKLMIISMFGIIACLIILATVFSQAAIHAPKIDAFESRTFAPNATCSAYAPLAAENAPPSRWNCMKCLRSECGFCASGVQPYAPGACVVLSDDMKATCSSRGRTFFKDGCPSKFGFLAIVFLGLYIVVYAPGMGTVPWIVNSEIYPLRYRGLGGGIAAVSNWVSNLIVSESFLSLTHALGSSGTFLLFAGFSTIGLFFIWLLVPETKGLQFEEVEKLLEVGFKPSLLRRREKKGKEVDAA

`O[C@H]1[C@H](O)[C@@H](O)[C@H](O)[C@@H](O)[C@H]1O` [myo-inositol] was tested, and the “inhibition of arsenic uptake into yeast cells, ICP-MS” value [1] was “substrate competition inhibited arsenic accumulation in D458-1B expressing AtINT2 or AtINT4” and the “inhibition of arsenic uptake into yeast cells, ICP-MS” value [2] was “substrate competition inhibited arsenic accumulation in D458-1B expressing AtINT2 or AtINT4”.
